According to US9738670B2, “Pentaaza macrocyclic ring complexes possessing oral bioavailability” (Galera Labs, LLC, priority 2015, dated 2017):

Tests used:
mouse cancer models = conditions: ip; cited from earlier work
[1] = tested on: VEGFr inhibitor-induced pulmonary disease; conditions: ip, rat; cited from earlier work
[2] = Intraduodenal (id) bioavailability screen in minipigs, oil formulations, vs iv parent dichloro complex; type: in vivo, Gottingen minipig; conditions: id 10 mg/kg, 10% by weight formulation, AUC0->24 h vs iv 1 mg/kg parent chloro complex
Experimental: Compounds were screened for oral bioavailability by injecting the formulated prodrugs directly into the duodenum (intraduodenal or id administration) of the minipig test subjects, thus bypassing the acidic environment of the stomach and thereby eliminating potentially misleading oral bioavailability results that could arise from alteration of the test article drug in the acid environment of the stomach.
The studies were conducted at Xenometrics LLC (Stillwell, Kans.) and the Id bioavailability was determined using various axial ligand derivative complexes of GC4419, GC4444, GC4403 and GC4401.
*Where the iv dose is 1 mg of test article drug per kilogram body weight of the mini-pig, and the dose administered id is 10 mg of test article drug per kg body weight of the mini-pig.
Male Gottingen minipigs (4-5 mo old, 9-12 kg weight) were purchased from Marshall BioResources and housed at Xenometrics. […] The distal end was exteriorized with a reusable accessible hub (see surgical details below). During a recovery period of at least 2 weeks the minipigs were handled daily to acclimate them to the test procedures, i.e., id dosing and blood collections. For each experiment, each minipig received a test article drug dissolved or suspended in an excipient vehicle. […] All dosing experiments were conducted in fasted animals. Food was withdrawn from the minipigs 16 hours before dosing. The minipigs had ad libitum access to water. Dosed minipigs were allowed access to food 6 hour after dosing. The test article was administered at a dose of 10 mg/kg parent drug in 0.1 m L/kg vehicle (e.g., 1.5 mL in 15 kg minipig) as a bolus injection (˜1 minute) via the id cannula. The actual amount of total test article drug administered varied with the formula weight of the prodrug. An equal volume of excipient vehicle was used to flush the cannula after the test article was administered. Approximately 6 hours later, corn oil was used to flush the cannula. After approximately 24 hours post-dose, the catheter was flushed with sterile saline solution and capped. At the following time-points 0.25, 0.5, 1, 2, 4, 8, 24 and 48 hour post-injection, 2 mL blood samples were collected by cranial vena cava puncture (4 mL Sodium heparin Vacutainer, 20 g 1.5″ needle) after the skin surface was wiped with ethanol. The minipig was placed in a sling in a recumbent position without anesthesia for the collection of blood samples. The minipigs were never used more than once per 7 days for experimentation. The blood samples were kept on ice until processed for plasma. Blood samples were centrifuged at 1200×g for ten minutes at 4° C. and plasma samples were transferred to 96 well plate tubes, capped and stored at −20° C. until shipment on dry ice to the analytical laboratory used for measuring the concentration of drug in the plasma. The concentration of the parent manganese pentaaza macrocylic ring complex (independent of the composition of the axial ligands) was measured in plasma using a validated HPLC/MS/MS method that is linear between 50 ng/mL and 20,000 ng/mL.
The oils used for preparing the dosing solutions were used as supplied from commercial sources. The Capmul MCM (NF) is a mixture of mono/diglycerides of caprylic/capric acids and was supplied by ABITEC Corporation, Janesville, Wis. The Miglyol 812 N is a mixture of caprylic/capric acid triglycerides and was supplied by Cremer Oleo Division, Eatontown, N.J. Labrafil M 2125 CS (NF) is chemically defined to be linoleoyl polyoxyl-6 glycerides NF and was supplied by Gattefosse, SAINT-PRIEST Cedex, France. Peceol is chemically defined to be the monoglyceride, glyceryl monooleate NF, and was supplied by Gattefosse, SAINT-PRIEST Cedex, France. Maisine 35-1 is chemically defined to be the monoglyceride glyceryl monolinoleate (NF) and was supplied by Gattefosse, SAINT-PRIEST Cedex, France. Labrasol (NF) is chemically defined to be caprylocaproyl polyoxyl-8 glycerides NF and was supplied by Gattefosse, SAINT-PRIEST Cedex, France. […]

oral mucositis = conditions: intravenous (iv) infusion, patients; cited from earlier work
[3] = tested on: collagen-induced arthritis; conditions: ip, rat; cited from earlier work
[4] = tested on: experimental model of colitis; conditions: intraperitoneal (ip) injection, rats; cited from earlier work
[5] = tested on: lethal total body irradiation; conditions: ip, adult mice; cited from earlier work
[6] = tested on: radiation-induced oral mucositis; conditions: ip, hamster; cited from earlier work

[Cl][Mn][Cl].c1cc2nc(c1)CN[C@H]1CCCC[C@@H]1NCCN[C@H]1CCCC[C@@H]1NC2 [GC4419, reference compound]
anti-tumor activity of co-administered agents (mouse cancer models): increase the anti-tumor activity of anti-metabolite and anti-mitotic agents
pulmonary disease [1]: attenuate VEGFr inhibitor-induced pulmonary disease
Mini-Pig BioA ([2]; base oil Capmul MCM): 9%
Mini-Pig BioA ([2]; base oil Labrafil M2125 CS): 7%
Mini-Pig BioA ([2]; base oil Maisine 35-1): 8%
Mini-Pig BioA ([2]; base oil Miglyol 812N): 8%
Mini-Pig BioA ([2]; base oil Peceol): 9%
oral mucositis (oral mucositis): reduce oral mucositis

[Cl-].[Cl-].[Mn+2].c1cc2nc(c1)CN[C@@H]1CCCC[C@H]1NCCN[C@@H]1CCCC[C@H]1NC2 [GC4403]
joint disease [3]: prevent joint disease
injury to the colon [4]: significantly reduce the injury to the colon
Mini-Pig BioA ([2]; base oil Capmul MCM): 9%
radiation damage [5]: attenuate the radiation damage
radiation damage [6]: attenuate the radiation damage

Manganese(II)bis-racemic-phenylglycinato[6R-Methyl(4aR,13aR,17aR,21aR)-1,2,3,4,4a,5,6,12,13,13a,14,15,16,17,17a,18,19,20,21,21a-Eicosahydro-11,7-nitrilo-7H-dibenzo[b,h][1,4,7,10] tetraazacycloheptadecine-KN5, KN13, KN18, KN21, KN22]- [GC4716]
Mini-Pig BioA ([2]; base oil Capmul MCM): 34%

Manganese(II)bis-L-phenylalaninato[(4aS,13aS,17aS,21aS)-1,2,3,4,4a,5,6,12,13,13a,14,15,16,17,17a,18,19,20,21,21a-Eicosahydro-11,7-nitrilo-7H-dibenzo[b,h][1,4,7,10] tetraazacyclo-heptadecine-KN5, KN13, KN18, KN21, KN22]- [GC4704]
Mini-Pig BioA ([2]; base oil Capmul MCM): 10%

Manganese(II)bis-L--valinato[(4aS,13aS,17aS,21aS)-1,2,3,4,4a,5,6,12,13,13a,14,15,16,17,17a,18,19,20,21,21a- Eicosahydro-11,7-nitrilo-7H-dibenzo[b,h][1,4,7,10] tetraazacyclo-heptadecine-KN5, KN13, KN18, KN21, KN22]- [GC4746]
Mini-Pig BioA ([2]; base oil Capmul MCM): 13%

Manganese(II)bis-racemic-2-phenylpropionato[(4aS,13aS,17aS,21aS)-1,2,3,4,4a,5,6,12,13,13a,14,15,16,17,17a,18,19,20,21,21a-Eicosahydro-11,7-nitrilo-7H-dibenzo[b,h][1,4,7,10] tetraazacycloheptadecine-KN5, KN13, KN18, KN21, KN22]- [GC4705]
Mini-Pig BioA ([2]; base oil Capmul MCM): 23%
Mini-Pig BioA ([2]; base oil Peceol): 24%

Manganese(II)bis-acetato[(4aS,13aS,17aS,21aS)-1,2,3,4,4a,5,6,12,13,13a,14,15,16,17, 17a,18,19,20,21,21a-Eicosahydro-11,7-nitrilo-7H-dibenzo[b,h][1,4,7,10] tetraazacycloheptadecine-KN5,KN13,KN18,KN21,KN22]- [GC4701]
Mini-Pig BioA ([2]; base oil Capmul MCM): 15%
Mini-Pig BioA ([2]; base oil Labrafil M2125 CS): 16%
Mini-Pig BioA ([2]; base oil Maisine 35-1): 8%
Mini-Pig BioA ([2]; base oil Peceol): 11%
